Counter-ions that a name gives are not always drawn. Like-named read-outs stand apart in the source and are kept apart here.
Experiments:
human 5-HT1A receptors = target: T1, human 5-HT1A receptors (Homo sapiens, UniProt P08908); assay: Inhibition of 3H-5-CT binding to human 5-HT1A receptors
T1 construct: expressed in transfected cells; host or cells: HeLa cells (HA7), used as cell homogenate
T1 sequence (P08908 1-422): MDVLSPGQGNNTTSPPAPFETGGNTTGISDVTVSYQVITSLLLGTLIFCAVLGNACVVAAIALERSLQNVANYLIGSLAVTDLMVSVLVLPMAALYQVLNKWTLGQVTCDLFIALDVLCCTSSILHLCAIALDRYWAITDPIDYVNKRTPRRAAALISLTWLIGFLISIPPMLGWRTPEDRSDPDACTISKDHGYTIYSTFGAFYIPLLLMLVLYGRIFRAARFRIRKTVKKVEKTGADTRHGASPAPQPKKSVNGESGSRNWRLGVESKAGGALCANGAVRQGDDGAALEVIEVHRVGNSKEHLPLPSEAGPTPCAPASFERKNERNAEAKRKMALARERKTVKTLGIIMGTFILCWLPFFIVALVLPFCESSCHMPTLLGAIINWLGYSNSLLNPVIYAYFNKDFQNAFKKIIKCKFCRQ
Procedure: Inhibition of ^3H-5-CT Binding to Human 5-HT1A Receptors
Human 5-HT1A receptors (40 μg of cell homogenate) were incubated for 15 minutes at 37° C. in 50 mM Tris buffer at pH 7.7 in the presence of ^3H-5-CT. Non-specific binding was determined by including 10 μM of metergoline. The reaction was terminated by rapid filtration through Unifilter GF/B filters on a Tomtec Cell Harvester. Filters were counted in a Packard Top Counter.

[1] = test system: 3H-5-HT uptake into whole rat brain synaptosomes; assay: Inhibition of 3H-5-HT uptake into rat brain synaptosomes; format: biochemical; settings: 3H-5-HT accumulation into whole rat brain synaptosomes, in vitro; read-out: Inhibition of serotonin reuptake IC50
Procedure: Inhibition of ^3H-5-HT Uptake Into Rat Brain Synaptosomes
Using this method the ability of drugs to inhibit the accumulation of ^3H-5-HT into whole rat brain synaptosomes is determined in vitro.

cloned 5-HT1A receptors = target: T2, cloned 5-HT1A receptors (Homo sapiens, UniProt P08908); assay: Antagonism of 5-HT induced inhibition of forskolin induced cAMP accumulation; format: cell-based; settings: cloned 5-HT1A receptors in transfected HeLa cells (HA7)
T2 construct: expressed in transfected cells; host or cells: HeLa cells (HA7)
T2 sequence (P08908 1-422): T1 sequence (P08908 1-422)
Procedure: The assay was performed as a modification of the method described by Pauwels, P. J et al, Biochem. Pharmacol. 1993, 45, 375.

[2] = cloned human 5-HT1A receptors expressed in transfected HeLa cells (HA7), cell homogenate, 15 minutes at 37° C., pH 7.7
[3] = read-out: Inhibition of 3H-5-CT binding IC50, cloned human 5-HT1A receptors expressed in transfected HeLa cells (HA7), cell homogenate, 15 minutes at 37° C., pH 7.7

Row | Compound | IC50 (human 5-HT1A receptors) [µM] | IC50 [1] [µM] | melting point [°C] | IC50 (cloned 5-HT1A receptors) [µM] | IC50 (human 5-HT1A receptors; [2]) [µM] | IC50 (human 5-HT1A receptors; [3]) [µM]
1 | Fc1ccc2[nH]cc(CCN3CCN(c4cccc5c4OCCO5)CC3)c2c1.O=C(O)C(=O)O [Compound 1h, 3-[2-[4-(1,4-Benzodioxan-5-yl)piperazin-1-yl]ethyl]-5-fluoro-1H-indole oxalate] | 0.0046 | 0.0017 | 224 to 226 | 0.28 | – | –
2 | CC1(C)CCc2cc(Cl)cc(N3CCN(CCc4c[nH]c5cc(Cl)ccc45)CC3)c2O1.O=C(O)/C=C/C(=O)O [Compound 3d, 6-Chloro-3-[2-[4-(6-chloro-2,2-dimethyl-3,4-dihydro-2H-1-benzopyran-8-yl)piperazin-1yl]ethyl]-1H-indole fumarate] | 0.021 | 0.015 | 224 to 225 | 2.3 | – | –
3 | Clc1ccc2c(c1)NCC2CCN1CCN(c2cccc3c2OCCO3)CC1.O=C(O)C(=O)O (centres unmarked) [Compound 4d, 3-[2-[4-(1,4-Benzodioxan-5-yl)piperazin-1-yl]ethyl]-6-chloro-2,3-dihydro-1H-indole oxalate] | – | 0.0043 | 185 to 188 | 0.89 | 0.014 | –
4 | 3-[2-[4-(1,4-Benzodioxan-5-yl)Piperazin-1-yl]Ethyl]-6-Chloro-1H-Indole Hemifumarate [Compound 3a] | – | 0.0053 | – | 0.5 | – | 0.0012
5 | Clc1ccc2c(CCN3CC=C(c4cccc5c4OCCO5)CC3)c[nH]c2c1.O=C(O)C(=O)O [Compound 1v, 3-[2-[4-(1,4-Benzodioxan-5-yl)-1,2,3,6-tetrahydropyridin-1-yl]ethyl]-6-chloro-1H-indole oxalate] | 0.00081 | 0.00085 | 240 to 247 | 3.3 | – | –
6 | CC1(C)Cc2cccc(C3=CCN(CCc4c[nH]c5cc(Cl)ccc45)CC3)c2O1 [Compound 1g, 6-Chloro-3-[2-[4-(2,2,-dimethyl-2,3,-dihydrohydrobenzofuran-7-yl)-1,2,3,6-tetrahydro-1-pyridyl]ethyl]-1H-indole oxalate] | 0.0028 | 0.0038 | – | 1.8 | – | –
7 | COc1ccc2[nH]cc(CCN3CCN(c4cccc5c4OCCO5)CC3)c2c1 [Compound 1i, 3-[2-[4-(1,4-Benzodioxan-5-yl)piperazin-1-y]ethyl]-5-methoxy-1H-indole hemioxalate] | 0.0069 | 0.0068 | – | 0.62 | – | –
8 | Clc1ccc2[nH]cc(CCN3CCN(c4cccc5c4OCCO5)CC3)c2c1 [Compound 1a, 3-[2-[4-(1,4-Benzodioxan-5-yl)Piperazin-1-yl]Ethyl]-5-Chloro-1H-Indole Oxalate] | 0.017 | 0.005 | – | 2.9 | – | –
9 | CC(=O)N1CC(CCN2CCN(c3cccc4c3OCCO4)CC2)c2ccccc21 (centres unmarked) [Compound 2b] | – | 0.012 | 119 to 120 | 0.25 | 0.013 | –
10 | Brc1ccc2[nH]cc(CCN3CCN(c4cccc5c4OCCO5)CC3)c2c1.O=C(O)C(=O)O [Compound 1b, 3-[2-[4-(1,4-Benzodioxan-5-yl)piperazin-1-yl]ethyl]-5-bromo-1H-indole oxalate] | 0.0072 | 0.0028 | 236 to 240 | 5 | – | –
11 | 3-[2-[4-(1,4-Benzodioxan-5-yl)piperazin-1-yl]ethyl]-6-methyl-1H-indole hemifumarate [Compound 1k] | – | 0.018 | – | 0.58 | – | 0.002
12 | Clc1cccc2[nH]cc(CCN3CCN(c4cccc5c4OCCO5)CC3)c12.O=C(O)C(=O)O [Compound 1e, 3-[2-[4-(1,4-Benzodioxan-5-yl)piperazin-1-yl]ethyl]-4-chloro-1H-indole oxalate] | 0.011 | 0.00025 | 210 to 218 | 2.4 | – | –
13 | Clc1ccc2[nH]cc(CCN3CCN(c4cccc5c4OCC5)CC3)c2c1.O=C(O)C(=O)O [Compound 1n, 5-Chloro-3-[2-[4-(2,3-dihydrobenzofuran-7-yl)piperazin-1-yl]ethyl]-1H-indole oxalate] | 0.0082 | 0.0021 | 134 to 138 | 1.9 | – | –

Source: patent publication US6727263B2, “Indole and 2,3-dihydroindole derivatives, their preparation and use” (H. Lundbeck A/S, priority 1997, dated 2004)
